Source: ChEMBL document CHEMBL1133170, “Binding mode of the 4-anilinoquinazoline class of protein kinase inhibitor: X-ray crystallographic studies of 4-anilinoquinazolines bound to cyclin-dependent kinase 2 and p38 kinase” (J Med Chem, 2000)

What was measured:
[1] = target: Cyclin-dependent kinase 2 (Homo sapiens, UniProt P24941); experiment: Inhibition of Cyclin-dependent kinase 2
MAP kinase p38 = MAP kinase p38 (Homo sapiens, UniProt O15264+Q15759+Q16539+P53778); experiment: Inhibition of Mitogen-activated protein kinase p38; format: protein assay

IC50 [1]: 250 µM
IC50 (MAP kinase p38): 6.3 µM
Compound: COc1cc2ncnc(Nc3cccc(Br)c3)c2cc1OC
